Measurements reported in patent US5807535A, “Metal complexes of hydroxyaryl containing aminocarboxylic acid chelating agents” (Australian Nuclear Science & Technology Organisation, priority 1992, dated 1998).
Read-outs that look alike come from different tables or passages of the source.

Assays:
[1] = Biodistribution of compound No. 6 in mice (Table 6); format: in vivo, Balb/c mice; conditions: mouse; for tissue uptake at 0.05 h: 3 min
Text: (§1) A series of derivatives incorporating carboxyl and phenolate donor groups (1-6) were synthesised by literature method and their radiolabelling characteristic and biological behaviour evaluated. Initial work involved an investigation of radiochemical properties of the ^99m Tc complexes of the ligands and their biodistribution in rats and mice (see Tables 1-6 and 8-12).
(§2) A typical method of radiolabelling of the chelator was achieved by dissolving the chelator in a basic solution of saline. The pH was then adjusted to approx. 6 with HCl. Excess stannous chloride was added to the resultant solution followed by one equivalent volume of sodium ^99m TcO4 (10-50 mCi/ml). Final concentration of the chelator was approx. 1 mg/ml. The efficacy of labelling was determined by ITLC-SG. For each product only one main radiochemical species was observed. Each complex was diluted to 15 μCi/100 μl with saline. […] (See FIGS. 1A and 1B).

[2] = Biodistribution of 99mTc complexes in mice; format: in vivo, Balb/c mice
Text: as §1, §2

[3] = Biodistribution of 67Ga complexes in mice; format: in vivo, balb/c mice
Procedure: To ligand (50 μL, 10 mg/mL, 0.2 M NaOAc, […]) was added ^67 Ga citrate (18.5 MBq) and the resultant mixture diluted to 1 mL (0.2 M NaOAc, pH 7). The pH was adjusted to 12 with 1 M NaOH (20 μL) and heated at 40° C. for 40 min. The final volume was adjusted (to 5 mL) with saline and sterilised by filtering through a 0.22 μm filter.
Each animal was injected via tail vein with ^67 Ga complex (100 μL, ~3.7×10^5 Bq). Animals were sacrificed at various time intervals (5 animals per time point/6 time points). Data are illustrated in FIG. 26-30 and in Tables 13-17.
Each ^67 Ga-ligand complex has been evaluated in balb/c mice. […] (see FIG. 26-30).

[4] = blood, read-out: biodistribution blood
[5] = bone, read-out: biodistribution bone
[6] = brain, read-out: biodistribution brain
[7] = heart, read-out: biodistribution heart
[8] = kidneys, read-out: biodistribution kidneys
[9] = liver, read-out: biodistribution liver
[10] = lungs, read-out: biodistribution lungs
[11] = muscle, read-out: biodistribution muscle
[12] = pancreas, read-out: biodistribution pancreas
[13] = skin, read-out: biodistribution skin
[14] = spleen, read-out: biodistribution spleen
[15] = stomach, read-out: biodistribution stomach
[16] = tail, read-out: biodistribution tail
[17] = thymus, read-out: biodistribution thymus
[18] = thyroid, read-out: biodistribution thyroid
[19] = total git, read-out: biodistribution tot GIT
[20] = urine, read-out: biodistribution urine

Work on `Cc1cc(C)c(O)c(NC(=O)CN(CCN(CC(=O)O)CC(=O)Nc2cc(C)cc(C)c2O)CC(=O)O)c1` [Compound 6] yielded a tissue uptake at 0.05 h [1, 4] of 10.7 %ID/g, a tissue uptake at 5 min [1, 4] of 7.83 %ID/g and a tissue uptake at 0.05 h [1, 5] of 1.91 %ID/g. For the same compound, the tissue uptake at 5 min [1, 5] was 1.39 %ID/g, the tissue uptake at 0.05 h [1, 6] was 0.74 %ID/g and the tissue uptake at 5 min [1, 6] was 0.35 %ID/g. For the same compound, the tissue uptake at 0.05 h [1, 7] was 3.84 %ID/g, the tissue uptake at 5 min [1, 7] was 2.8 %ID/g and the tissue uptake at 0.05 h [1, 8] was 24.1 %ID/g. It also gave a tissue uptake at 5 min [1, 8] of 18.4 %ID/g, a tissue uptake at 0.05 h [1, 9] of 6.52 %ID/g and a tissue uptake at 5 min [1, 9] of 9.39 %ID/g. The tissue uptake at 0.05 h [1, 10] was 6.38 %ID/g, the tissue uptake at 5 min [1, 10] was 4.66 %ID/g and the tissue uptake at 0.05 h [1, 11] was 1.81 %ID/g. The tissue uptake at 5 min [1, 11] was 1.26 %ID/g, the tissue uptake at 0.05 h [1, 12] was 1.86 %ID/g and the tissue uptake at 5 min [1, 12] was 1.41 %ID/g. For the same compound, the tissue uptake at 0.05 h [1, 13] was 3.96 %ID/g, the tissue uptake at 5 min [1, 13] was 3.47 %ID/g and the tissue uptake at 0.05 h [1, 14] was 2.24 %ID/g. For the same compound, the tissue uptake at 5 min [1, 14] was 1.78 %ID/g, the tissue uptake at 0.05 h [1, 15] was 1.78 %ID/g and the tissue uptake at 5 min [1, 15] was 6.85 %ID/g. The tissue uptake at 0.05 h [1, 16] was 8.94 %ID/g, the tissue uptake at 5 min [1, 16] was 6.18 %ID/g and the tissue uptake at 0.05 h [1, 17] was 3.67 %ID/g. The tissue uptake at 5 min [1, 17] was 2.5 %ID/g, the tissue uptake at 0.05 h [1, 18] was 5.76 %ID/g and the tissue uptake at 5 min [1, 18] was 3.73 %ID/g. The tissue uptake at 0.05 h [1, 19] was 1.03 %ID/g, the tissue uptake at 5 min [1, 19] was 2.12 %ID/g and the tissue uptake at 0.05 h [1, 20] was 1.3 %ID/g. The tissue uptake at 5 min [1, 20] was 0.95 %ID/g, the “biodistribution GIT” value ([2]; 1 min) was 3.58 % Injected dose and the biodistribution bladder ([2]; 1 min) was 0.06 % Injected dose. For the same compound, the biodistribution blood ([2]; 1 min) was 41.63 % Injected dose, the biodistribution bone ([2]; 1 min) was 7.37 % Injected dose and the biodistribution heart ([2]; 1 min) was 0.46 % Injected dose. It also gave a biodistribution kidney ([2]; 1 min) of 7.57 % Injected dose, a biodistribution liver ([2]; 1 min) of 22.44 % Injected dose and a biodistribution lungs ([2]; 1 min) of 1.71 % Injected dose. It also gave a biodistribution muscle ([2]; 1 min) of 13.95 % Injected dose, a biodistribution skin ([2]; 1 min) of 8.13 % Injected dose and a biodistribution spleen ([2]; 1 min) of 0.2 % Injected dose. For the same compound, the biodistribution stomach ([2]; 1 min) was 0.4 % Injected dose, the biodistribution tail ([2]; 1 min) was 8.46 % Injected dose and the biodistribution urine ([2]; 1 min) was 0.07 % Injected dose. The “biodistribution GIT” value ([2]; 3 min) was 11.98 % Injected dose, the biodistribution bladder ([2]; 3 min) was 0.08 % Injected dose and the biodistribution blood ([2]; 3 min) was 15.59 % Injected dose. The biodistribution bone ([2]; 3 min) was 3.5 % Injected dose, the biodistribution heart ([2]; 3 min) was 0.2 % Injected dose and the biodistribution kidney ([2]; 3 min) was 5.68 % Injected dose. The biodistribution liver ([2]; 3 min) was 35.66 % Injected dose, the biodistribution lungs ([2]; 3 min) was 0.65 % Injected dose and the biodistribution muscle ([2]; 3 min) was 7.87 % Injected dose. The biodistribution skin ([2]; 3 min) was 8.31 % Injected dose, the biodistribution spleen ([2]; 3 min) was 0.09 % Injected dose and the biodistribution stomach ([2]; 3 min) was 0.43 % Injected dose. For the same compound, the biodistribution tail ([2]; 3 min) was 7.37 % Injected dose, the biodistribution urine ([2]; 3 min) was 0.81 % Injected dose and the “biodistribution GIT” value ([2]; 5 min) was 27.85 % Injected dose. The biodistribution bladder ([2]; 5 min) was 0.07 % Injected dose, the biodistribution blood ([2]; 5 min) was 10.31 % Injected dose and the biodistribution bone ([2]; 5 min) was 3.86 % Injected dose. The biodistribution heart ([2]; 5 min) was 0.16 % Injected dose, the biodistribution kidney ([2]; 5 min) was 4.53 % Injected dose and the biodistribution liver ([2]; 5 min) was 30.85 % Injected dose. For the same compound, the biodistribution lungs ([2]; 5 min) was 0.69 % Injected dose, the biodistribution muscle ([2]; 5 min) was 7.24 % Injected dose and the biodistribution skin ([2]; 5 min) was 9.28 % Injected dose. It also gave a biodistribution spleen ([2]; 5 min) of 0.14 % Injected dose, a biodistribution stomach ([2]; 5 min) of 5.42 % Injected dose and a biodistribution tail ([2]; 5 min) of 7.64 % Injected dose. For the same compound, the biodistribution urine ([2]; 5 min) was 0.59 % Injected dose, the “biodistribution GIT” value ([2]; 10 min) was 45.71 % Injected dose and the biodistribution bladder ([2]; 10 min) was 0.23 % Injected dose. The biodistribution blood ([2]; 10 min) was 6.34 % Injected dose, the biodistribution bone ([2]; 10 min) was 2.76 % Injected dose and the biodistribution heart ([2]; 10 min) was 0.08 % Injected dose. For the same compound, the biodistribution kidney ([2]; 10 min) was 2.44 % Injected dose, the biodistribution liver ([2]; 10 min) was 16.04 % Injected dose and the biodistribution lungs ([2]; 10 min) was 0.45 % Injected dose. For the same compound, the biodistribution muscle ([2]; 10 min) was 5.27 % Injected dose, the biodistribution skin ([2]; 10 min) was 5.17 % Injected dose and the biodistribution spleen ([2]; 10 min) was 0.07 % Injected dose. The biodistribution stomach ([2]; 10 min) was 3.42 % Injected dose, the biodistribution tail ([2]; 10 min) was 4.77 % Injected dose and the biodistribution urine ([2]; 10 min) was 1.231 % Injected dose. For the same compound, the “biodistribution GIT” value ([2]; 30 min) was 51.18 % Injected dose, the biodistribution bladder ([2]; 30 min) was 0.2 % Injected dose and the biodistribution blood ([2]; 30 min) was 9.66 % Injected dose. It also gave a biodistribution bone ([2]; 30 min) of 2.54 % Injected dose, a biodistribution heart ([2]; 30 min) of 0.11 % Injected dose and a biodistribution kidney ([2]; 30 min) of 1.9 % Injected dose. For the same compound, the biodistribution liver ([2]; 30 min) was 14.05 % Injected dose, the biodistribution lungs ([2]; 30 min) was 0.39 % Injected dose and the biodistribution muscle ([2]; 30 min) was 6.92 % Injected dose. For the same compound, the biodistribution skin ([2]; 30 min) was 4.23 % Injected dose, the biodistribution spleen ([2]; 30 min) was 0.06 % Injected dose and the biodistribution stomach ([2]; 30 min) was 1.73 % Injected dose. It also gave a biodistribution tail ([2]; 30 min) of 2.41 % Injected dose, a biodistribution urine ([2]; 30 min) of 1.64 % Injected dose and a biodistribution bone ([3]; 1 min) of 4.33 % ID. It also gave a biodistribution kidney ([3]; 1 min) of 9.95 % ID, a biodistribution liver ([3]; 1 min) of 26.45 % ID and a biodistribution muscle ([3]; 1 min) of 17.93 % ID. It also gave a biodistribution skin ([3]; 1 min) of 13.91 % ID, a biodistribution spleen ([3]; 1 min) of 0.22 % ID and a biodistribution bone ([3]; 3 min) of 2.41 % ID. For the same compound, the biodistribution kidney ([3]; 3 min) was 5.24 % ID, the biodistribution liver ([3]; 3 min) was 34.06 % ID and the biodistribution muscle ([3]; 3 min) was 10.67 % ID. The biodistribution skin ([3]; 3 min) was 12.80 % ID, the biodistribution spleen ([3]; 3 min) was 0.08 % ID and the biodistribution bone ([3]; 5 min) was 1.67 % ID. It also gave a biodistribution kidney ([3]; 5 min) of 3.36 % ID, a biodistribution liver ([3]; 5 min) of 30.21 % ID and a biodistribution muscle ([3]; 5 min) of 6.35 % ID. For the same compound, the biodistribution skin ([3]; 5 min) was 10.62 % ID, the biodistribution spleen ([3]; 5 min) was 0.04 % ID and the biodistribution bone ([3]; 10 min) was 0.96 % ID. For the same compound, the biodistribution kidney ([3]; 10 min) was 1.98 % ID, the biodistribution liver ([3]; 10 min) was 18.58 % ID and the biodistribution muscle ([3]; 10 min) was 4.37 % ID. It also gave a biodistribution skin ([3]; 10 min) of 5.76 % ID, a biodistribution spleen ([3]; 10 min) of 0.03 % ID and a biodistribution bone ([3]; 30 min) of 0.34 % ID. It also gave a biodistribution kidney ([3]; 30 min) of 0.79 % ID, a biodistribution liver ([3]; 30 min) of 3.15 % ID and a biodistribution muscle ([3]; 30 min) of 7.73 % ID. For the same compound, the biodistribution skin ([3]; 30 min) was 0.86 % ID, the biodistribution spleen ([3]; 30 min) was 0.01 % ID and the biodistribution kidney ([3]; 120 min) was 0.06 % ID. It also gave a biodistribution liver ([3]; 120 min) of 1.33 % ID, a biodistribution muscle ([3]; 120 min) of 1.85 % ID and a biodistribution skin ([3]; 120 min) of 0.10 % ID. The biodistribution spleen ([3]; 120 min) was 0.00 % ID.
